Laboratory results: the NIST ThermoML archive (doi:10.1021/je100598x)

Test: cn = amount concentration of the nth substance listed, in mol/dm3
Details: 101 kPa, Liquid, Direct current cell with electrodes

CCCCCCCCCCCC[N+](CCC)(CCC)CCC.[Br-] [dodecyltripropylammonium bromide] + O
electrical conductivity [S/m]
Details	288.15 K	293.15 K	298.15 K	303.15 K	308.15 K	313.15 K	318.15 K
c1 = 0.001055	0.00819	0.00909	0.01006	0.01131	0.01244	0.0137	0.0147
c1 = 0.002089	0.0153	0.01734	0.01942	0.0217	0.0238	0.0261	0.0282
c1 = 0.003101	0.0222	0.025	0.0282	0.0316	0.0345	0.038	0.0412
c1 = 0.004092	0.0285	0.0326	0.0367	0.041	0.0449	0.0496	0.0538
c1 = 0.005063	0.0346	0.0398	0.0448	0.0501	0.0546	0.0605	0.0657
c1 = 0.006015	0.0405	0.0467	0.0527	0.059	0.0643	0.0712	0.0774
c1 = 0.006948	0.0461	0.0533	0.0599	0.0675	0.0741	0.0816	0.0886
c1 = 0.007862	0.0516	0.0594	0.0674	0.0757	0.083	0.0912	0.0991
c1 = 0.008759	0.0566	0.0658	0.0743	0.0832	0.0913	0.1001	0.109
c1 = 0.009639	0.0619	0.0714	0.0804	0.0896	0.0982	0.108	0.117
c1 = 0.0105	0.0661	0.0761	0.0846	0.0945	0.1035	0.1136	0.1242
c1 = 0.01135	0.0702	0.0797	0.0883	0.0984	0.108	0.118	0.13
c1 = 0.01218	0.0731	0.0825	0.0919	0.1018	0.1117	0.1228	0.1348
c1 = 0.01319	0.0759	0.0851	0.0953	0.106	0.116	0.128	0.1405
c1 = 0.01419	0.0783	0.0883	0.0985	0.109	0.1203	0.1325	0.146
c1 = 0.01516	0.0806	0.0906	0.1015	0.1128	0.1242	0.137	0.1512
c1 = 0.01657	0.0837	0.0942	0.106	0.118	0.13	0.1433	0.157
c1 = 0.01794	0.0866	0.0976	0.11	0.1224	0.135	0.149	0.165
c1 = 0.01927	0.0895	0.1009	0.1137	0.127	0.1404	0.155	0.1719
c1 = 0.02055	0.0921	0.1041	0.117	0.1312	0.145	0.161	0.178
c1 = 0.02179	0.0947	0.107	0.1211	0.135	0.15	0.166	0.1843
c1 = 0.023	0.0973	0.1101	0.1245	0.139	0.1545	0.1709	0.1906
c1 = 0.02417	0.0996	0.113	0.128	0.1433	0.159	0.175	0.196
